Measurements: ChEMBL document CHEMBL4376896, “Synthesis of Novel Potent Archazolids: Pharmacology of an Emerging Class of Anticancer Drugs” (J Med Chem, 2020)
Calls of active or inactive are those of the source. The rule behind the calls is not given here.

Assays:
Neutrophil elastase = biological target: T1, Neutrophil elastase (Homo sapiens, UniProt P08246); assay: Inhibition of human leukocyte elastase assessed as reduction in pNA release using chromogenic MeO-Suc-Ala-Ala-Pro-Val-pNA substrate measured over 10 mins by spectrophotometry
T1 sequence (P08246 whole entry): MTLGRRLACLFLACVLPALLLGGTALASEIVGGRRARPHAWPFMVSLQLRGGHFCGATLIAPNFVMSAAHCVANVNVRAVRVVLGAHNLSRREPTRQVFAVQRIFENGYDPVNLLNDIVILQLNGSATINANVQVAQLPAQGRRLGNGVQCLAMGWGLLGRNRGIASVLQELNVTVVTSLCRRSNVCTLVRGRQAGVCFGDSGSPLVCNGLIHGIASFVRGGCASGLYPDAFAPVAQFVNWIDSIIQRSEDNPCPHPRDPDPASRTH

cells = settings: Homo sapiens, 1321-N1, 72 h
Description: Growth inhibition of human 1321N1 cells incubated for 72 hrs by MTT assay

P2X purinoceptor 3 = biological target: T2, P2X purinoceptor 3 (Homo sapiens, UniProt P56373); assay: Inhibition of human P2X3 assessed as reduction in agonist-induced intracellular Ca2+ concentration pre-incubated for 30 mins before agonist addition by calcium 5 dye based fluorescence assay; format: cell-based
T2 sequence (P56373 whole entry): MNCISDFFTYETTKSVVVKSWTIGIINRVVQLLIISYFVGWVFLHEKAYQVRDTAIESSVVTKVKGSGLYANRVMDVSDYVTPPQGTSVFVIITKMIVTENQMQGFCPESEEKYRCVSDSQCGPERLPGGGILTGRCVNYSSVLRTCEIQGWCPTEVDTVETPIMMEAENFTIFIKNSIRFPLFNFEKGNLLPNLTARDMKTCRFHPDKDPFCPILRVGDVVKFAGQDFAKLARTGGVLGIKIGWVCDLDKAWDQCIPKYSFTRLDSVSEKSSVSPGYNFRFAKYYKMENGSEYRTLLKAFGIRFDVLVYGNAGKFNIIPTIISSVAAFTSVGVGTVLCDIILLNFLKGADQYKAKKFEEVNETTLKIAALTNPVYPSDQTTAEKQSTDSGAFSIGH

Adenosine receptor A3 = biological target: T3, Adenosine receptor A3 (Homo sapiens, UniProt P0DMS8); assay: Displacement of [3H]PSB-11 from human A3 adenosine receptor expressed in CHO cell membranes incubated for 60 mins by liquid scintillation counting method
T3 sequence (P0DMS8 whole entry): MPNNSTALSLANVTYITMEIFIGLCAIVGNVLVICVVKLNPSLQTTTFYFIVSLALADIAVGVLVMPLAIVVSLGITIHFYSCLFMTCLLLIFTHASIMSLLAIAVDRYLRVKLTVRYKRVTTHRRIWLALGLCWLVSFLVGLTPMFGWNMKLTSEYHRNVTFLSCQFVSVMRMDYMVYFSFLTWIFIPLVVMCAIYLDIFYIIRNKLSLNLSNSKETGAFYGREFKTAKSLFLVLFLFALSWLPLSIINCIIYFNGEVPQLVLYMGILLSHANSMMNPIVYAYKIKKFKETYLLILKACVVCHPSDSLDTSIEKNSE

[1] = Inhibition of Manduca sexta V-type proton ATPase assessed as reduction in inorganic phosphate production pre-inucubated for 5 mins before Tris-ATP addition and measured after 2 mins
[2] = biological target: P2X purinoceptor 1 (Homo sapiens) (UniProt P51575); assay: Inhibition of human P2X1 assessed as reduction in agonist-induced intracellular Ca2+ concentration at 10 uM pre-incubated for 30 mins before agonist addition by calcium 5 dye based fluorescence assay; format: cell-based
Homo sapiens = organism: Homo sapiens; assay: Inhibition of Calcium channel (unknown origin) at 10 uM relative to control
[3] = biological target: P2X purinoceptor 3 (Homo sapiens) (UniProt P56373); assay: Non-competitive inhibition of human P2X3 expressed in human 1321N1 cells assessed as reduction in maximal effect of ATP-induced intracellular Ca2+ concentration pre-incubated for 30 mins before agonist addition by calcium 5 dye based fluorescence assay; format: cell-based
[4] = biological target: P2Y purinoceptor 14 (Homo sapiens) (UniProt Q15391); assay: Inhibition of human P2Y14 assessed as reduction in agonist-induced intracellular Ca2+ concentration at 10 uM pre-incubated for 30 mins before agonist addition by FLUO-4 AM dye based fluorescence assay; format: functional, cell-based
[5] = biological target: Adenosine receptor A2a (Homo sapiens) (UniProt P29274); assay: Inhibition of human A2A adenosine receptor incubated for 60 mins by liquid scintillation counting method
[6] = biological target: P2Y purinoceptor 11 (Homo sapiens) (UniProt Q96G91); assay: Inhibition of human P2Y11 assessed as reduction in agonist-induced intracellular Ca2+ concentration at 10 uM pre-incubated for 30 mins before agonist addition by FLUO-4 AM dye based fluorescence assay; format: functional, cell-based
[7] = biological target: Peroxisome proliferator-activated receptor gamma (Homo sapiens) (UniProt P37231); assay: Inhibition of human PPARgamma at 10 uM relative to control
[8] = biological target: Adenosine receptor A1 (Homo sapiens) (UniProt P30542); assay: Inhibition of human A1 adenosine receptor incubated for 60 mins by liquid scintillation counting method
[9] = biological target: P2Y purinoceptor 2 (Homo sapiens) (UniProt P41231); assay: Inhibition of human P2Y2 assessed as reduction in agonist-induced intracellular Ca2+ concentration at 10 uM pre-incubated for 30 mins before agonist addition by FLUO-4 AM dye based fluorescence assay; format: functional, cell-based
[10] = biological target: Chymotrypsin (Homo sapiens) (UniProt Q99895+P17538+P40313+Q6GPI1); assay: Inhibition of chymotrypsin (unknown origin) assessed as reduction in pNA release using chromogenic Suc-Ala-Ala-Pro-Phe-pNA substrate measured over 12.5 mins by spectrophotometry; format: protein assay
[11] = biological target: P2Y purinoceptor 4 (Homo sapiens) (UniProt P51582); assay: Inhibition of human P2Y4 assessed as reduction in agonist-induced intracellular Ca2+ concentration at 10 uM pre-incubated for 30 mins before agonist addition by FLUO-4 AM dye based fluorescence assay; format: functional, cell-based
[12] = biological target: Cathepsin B (Homo sapiens) (UniProt P07858); assay: Inhibition of cathepsin B (unknown origin) assessed as reduction in pNA release using chromogenic Z-Arg-Arg-pNA substrate measured over 1 hr by spectrophotometry
[13] = biological target: P2X purinoceptor 2 (Homo sapiens) (UniProt Q9UBL9); assay: Inhibition of human P2X2 assessed as reduction in agonist-induced intracellular Ca2+ concentration at 10 uM pre-incubated for 30 mins before agonist addition by FLUO-4 AM dye based fluorescence assay; format: cell-based
[14] = biological target: P2X purinoceptor 4 (Homo sapiens) (UniProt Q99571); assay: Inhibition of human P2X4 assessed as reduction in agonist-induced intracellular Ca2+ concentration at 10 uM pre-incubated for 30 mins before agonist addition by FLUO-4 AM dye based fluorescence assay; format: cell-based
[15] = biological target: Adenosine receptor A2b (Homo sapiens) (UniProt P29275); assay: Inhibition of human A2B adenosine receptor incubated for 60 mins by liquid scintillation counting method
[16] = biological target: Procathepsin L (Homo sapiens) (UniProt P07711); assay: Inhibition of cathepsin L (unknown origin) assessed as reduction in pNA release using chromogenic Z-Phe-Arg-pNA substrate measured over 1 hr by spectrophotometry
[17] = biological target: Uracil nucleotide/cysteinyl leukotriene receptor (Homo sapiens) (UniProt Q13304); assay: Inhibition of human GPR17 at 10 uM by Oregon-green BAPTA-1/AM dye based calcium mobilization assay; format: functional
[18] = biological target: P2Y purinoceptor 6 (Homo sapiens) (UniProt Q15077); assay: Inhibition of human P2Y6 assessed as reduction in agonist-induced intracellular Ca2+ concentration at 10 uM pre-incubated for 30 mins before agonist addition by FLUO-4 AM dye based fluorescence assay; format: functional, cell-based
[19] = biological target: P2Y purinoceptor 12 (Homo sapiens) (UniProt Q9H244); assay: Inhibition of human P2Y12 assessed as reduction in agonist-induced intracellular Ca2+ concentration at 10 uM pre-incubated for 30 mins before agonist addition by FLUO-4 AM dye based fluorescence assay; format: functional, cell-based
[20] = biological target: P2Y purinoceptor 1 (Homo sapiens) (UniProt P47900); assay: Inhibition of human P2Y1 assessed as reduction in agonist-induced intracellular Ca2+ concentration at 10 uM pre-incubated for 30 mins before agonist addition by FLUO-4 AM dye based fluorescence assay; format: functional, cell-based
[21] = biological target: P2X purinoceptor 7 (Homo sapiens) (UniProt Q99572); assay: Inhibition of human P2X7 assessed as reduction in agonist-induced intracellular Ca2+ concentration at 10 uM pre-incubated for 30 mins before agonist addition by FLUO-4 AM dye based fluorescence assay; format: cell-based
Trypsin (Homo sapiens) = Trypsin (Homo sapiens) (UniProt P07477+P07478+P35030); assay: Inhibition of trypsin (unknown origin) assessed as reduction in pNA release using chromogenic Suc-Ala-Ala-Pro-Arg-pNA substrate measured over 10 mins by spectrophotometry; format: protein assay
[22] = Stability in CD1 mouse liver microsomes assessed as rapid hydroxylation at 1 uM; format: ADME, Microsome
[23] = Stability in human liver microsomes assessed as rapid demethylation at 1 uM; format: ADME, Microsome
[24] = Stability in CD1 mouse liver microsomes assessed as rapid demethylation at 1 uM; format: ADME, Microsome
[25] = Stability in CD1 mouse liver microsomes assessed as rapid oxidation at 1 uM; format: ADME, Microsome
[26] = Stability in human liver microsomes assessed as rapid oxidation at 1 uM; format: ADME, Microsome
[27] = Stability in human liver microsomes assessed as rapid hydroxylation at 1 uM; format: ADME, Microsome
[28] = Intrinsic clearance in CD1 mouse liver microsomes at 1 uM; format: ADME, Microsome; settings: read-out: CLH

Sequence of Procathepsin L (Homo sapiens) (P07711 114-333 limits assumed): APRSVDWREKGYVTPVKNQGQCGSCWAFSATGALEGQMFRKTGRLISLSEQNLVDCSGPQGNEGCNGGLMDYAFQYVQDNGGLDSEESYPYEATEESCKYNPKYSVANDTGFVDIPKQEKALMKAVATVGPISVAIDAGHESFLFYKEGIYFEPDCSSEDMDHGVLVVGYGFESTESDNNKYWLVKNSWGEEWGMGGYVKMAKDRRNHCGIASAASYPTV
Sequence of P2Y purinoceptor 1 (Homo sapiens) (P47900 whole entry): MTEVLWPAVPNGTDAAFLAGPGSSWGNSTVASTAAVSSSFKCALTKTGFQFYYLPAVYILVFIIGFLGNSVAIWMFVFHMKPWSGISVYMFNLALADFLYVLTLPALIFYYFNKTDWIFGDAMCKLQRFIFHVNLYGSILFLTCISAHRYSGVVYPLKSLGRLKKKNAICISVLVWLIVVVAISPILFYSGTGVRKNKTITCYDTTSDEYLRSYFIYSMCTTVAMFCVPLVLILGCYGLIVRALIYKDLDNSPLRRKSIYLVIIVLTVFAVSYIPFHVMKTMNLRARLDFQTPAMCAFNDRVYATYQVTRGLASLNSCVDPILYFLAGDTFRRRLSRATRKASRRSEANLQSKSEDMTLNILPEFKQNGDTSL
Sequence of P2Y purinoceptor 12 (Homo sapiens) (Q9H244 whole entry): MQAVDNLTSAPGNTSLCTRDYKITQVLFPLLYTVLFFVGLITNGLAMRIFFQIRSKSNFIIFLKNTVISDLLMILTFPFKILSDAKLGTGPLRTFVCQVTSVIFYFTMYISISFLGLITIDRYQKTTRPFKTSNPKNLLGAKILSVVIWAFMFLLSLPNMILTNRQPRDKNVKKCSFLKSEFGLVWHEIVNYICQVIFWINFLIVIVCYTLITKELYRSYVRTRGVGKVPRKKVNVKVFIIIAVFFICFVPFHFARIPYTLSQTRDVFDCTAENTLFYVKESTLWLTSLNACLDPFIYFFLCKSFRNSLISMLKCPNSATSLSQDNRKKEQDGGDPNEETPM
Sequence of P2Y purinoceptor 2 (Homo sapiens) (P41231 whole entry): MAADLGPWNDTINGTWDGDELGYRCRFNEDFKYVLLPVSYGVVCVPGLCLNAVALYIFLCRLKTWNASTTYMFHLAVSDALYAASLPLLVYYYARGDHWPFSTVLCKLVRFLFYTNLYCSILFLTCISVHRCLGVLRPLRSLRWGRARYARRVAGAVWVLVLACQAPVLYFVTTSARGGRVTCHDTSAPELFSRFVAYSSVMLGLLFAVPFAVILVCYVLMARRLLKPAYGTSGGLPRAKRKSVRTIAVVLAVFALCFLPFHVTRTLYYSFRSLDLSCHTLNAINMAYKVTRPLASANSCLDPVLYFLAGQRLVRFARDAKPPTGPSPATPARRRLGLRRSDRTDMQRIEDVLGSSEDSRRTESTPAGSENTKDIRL
Sequence of Adenosine receptor A2a (Homo sapiens) (P29274 whole entry): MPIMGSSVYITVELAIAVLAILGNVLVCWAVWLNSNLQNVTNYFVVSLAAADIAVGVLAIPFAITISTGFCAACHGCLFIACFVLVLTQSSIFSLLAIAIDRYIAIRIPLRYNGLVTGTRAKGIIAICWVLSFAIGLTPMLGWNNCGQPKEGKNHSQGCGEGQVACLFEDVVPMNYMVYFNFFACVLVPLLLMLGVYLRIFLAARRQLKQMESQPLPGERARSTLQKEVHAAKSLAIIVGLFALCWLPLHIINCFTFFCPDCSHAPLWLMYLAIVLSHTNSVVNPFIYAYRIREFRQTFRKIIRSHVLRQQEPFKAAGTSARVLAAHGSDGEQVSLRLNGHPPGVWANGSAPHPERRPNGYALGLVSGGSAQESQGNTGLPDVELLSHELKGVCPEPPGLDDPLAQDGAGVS
Sequence of P2X purinoceptor 7 (Homo sapiens) (Q99572 whole entry): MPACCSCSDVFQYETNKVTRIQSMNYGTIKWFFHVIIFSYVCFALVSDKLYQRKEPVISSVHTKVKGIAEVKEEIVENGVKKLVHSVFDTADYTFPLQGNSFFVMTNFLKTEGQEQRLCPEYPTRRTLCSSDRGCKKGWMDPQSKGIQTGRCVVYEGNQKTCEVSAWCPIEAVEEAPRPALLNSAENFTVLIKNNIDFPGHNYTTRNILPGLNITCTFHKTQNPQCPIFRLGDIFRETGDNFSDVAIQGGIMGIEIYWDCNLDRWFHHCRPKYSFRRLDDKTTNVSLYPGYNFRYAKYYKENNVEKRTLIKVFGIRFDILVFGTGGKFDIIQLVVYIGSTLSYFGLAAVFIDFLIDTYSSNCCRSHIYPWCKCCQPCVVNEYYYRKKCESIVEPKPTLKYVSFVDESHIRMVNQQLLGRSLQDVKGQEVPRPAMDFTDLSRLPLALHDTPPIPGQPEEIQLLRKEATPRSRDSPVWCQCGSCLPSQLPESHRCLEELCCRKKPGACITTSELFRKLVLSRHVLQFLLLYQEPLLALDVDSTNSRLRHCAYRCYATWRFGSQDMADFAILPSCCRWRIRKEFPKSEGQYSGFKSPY
Sequence of P2Y purinoceptor 4 (Homo sapiens) (P51582 whole entry): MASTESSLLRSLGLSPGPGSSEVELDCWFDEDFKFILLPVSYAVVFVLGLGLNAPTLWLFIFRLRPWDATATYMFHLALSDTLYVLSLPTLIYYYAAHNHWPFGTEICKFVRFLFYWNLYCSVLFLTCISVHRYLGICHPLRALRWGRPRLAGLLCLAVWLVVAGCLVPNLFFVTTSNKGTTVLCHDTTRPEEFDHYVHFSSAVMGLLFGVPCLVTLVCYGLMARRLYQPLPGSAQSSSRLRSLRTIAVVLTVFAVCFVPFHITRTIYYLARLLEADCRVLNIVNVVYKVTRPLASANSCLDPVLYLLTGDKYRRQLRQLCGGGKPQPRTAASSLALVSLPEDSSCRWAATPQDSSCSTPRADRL
Sequence of P2X purinoceptor 4 (Homo sapiens) (Q99571 whole entry): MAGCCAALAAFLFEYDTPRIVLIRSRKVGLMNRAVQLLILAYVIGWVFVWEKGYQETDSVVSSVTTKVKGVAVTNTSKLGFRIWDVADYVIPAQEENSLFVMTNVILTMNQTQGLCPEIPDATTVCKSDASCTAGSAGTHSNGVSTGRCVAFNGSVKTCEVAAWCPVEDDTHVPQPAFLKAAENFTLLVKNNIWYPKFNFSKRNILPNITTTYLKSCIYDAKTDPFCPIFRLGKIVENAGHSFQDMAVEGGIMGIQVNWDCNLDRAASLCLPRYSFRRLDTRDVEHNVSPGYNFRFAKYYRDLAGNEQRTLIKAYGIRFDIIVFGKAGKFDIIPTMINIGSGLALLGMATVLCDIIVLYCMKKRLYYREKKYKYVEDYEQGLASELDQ
Sequence of P2Y purinoceptor 11 (Homo sapiens) (Q96G91 whole entry): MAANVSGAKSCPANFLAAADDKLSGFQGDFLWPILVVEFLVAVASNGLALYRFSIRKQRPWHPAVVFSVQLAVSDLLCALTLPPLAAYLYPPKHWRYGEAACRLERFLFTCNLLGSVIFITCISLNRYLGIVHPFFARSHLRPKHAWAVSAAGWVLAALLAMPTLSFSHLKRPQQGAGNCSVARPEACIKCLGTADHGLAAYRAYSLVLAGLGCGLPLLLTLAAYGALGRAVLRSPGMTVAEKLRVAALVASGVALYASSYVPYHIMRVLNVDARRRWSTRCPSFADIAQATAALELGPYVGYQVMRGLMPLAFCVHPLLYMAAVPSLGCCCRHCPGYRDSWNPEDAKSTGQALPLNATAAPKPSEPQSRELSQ
Sequence of P2X purinoceptor 1 (Homo sapiens) (P51575 whole entry): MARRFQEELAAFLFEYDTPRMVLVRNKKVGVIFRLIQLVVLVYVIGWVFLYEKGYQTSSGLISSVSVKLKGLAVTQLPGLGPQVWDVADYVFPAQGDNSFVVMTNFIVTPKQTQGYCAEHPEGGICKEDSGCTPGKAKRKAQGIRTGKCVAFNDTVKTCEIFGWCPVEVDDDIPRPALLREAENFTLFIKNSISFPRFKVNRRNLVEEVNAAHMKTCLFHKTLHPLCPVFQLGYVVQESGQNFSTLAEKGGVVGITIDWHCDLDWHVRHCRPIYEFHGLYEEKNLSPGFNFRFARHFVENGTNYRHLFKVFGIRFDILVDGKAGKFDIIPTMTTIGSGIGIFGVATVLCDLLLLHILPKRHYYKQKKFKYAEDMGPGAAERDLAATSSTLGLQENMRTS
Sequence of P2Y purinoceptor 14 (Homo sapiens) (Q15391 whole entry): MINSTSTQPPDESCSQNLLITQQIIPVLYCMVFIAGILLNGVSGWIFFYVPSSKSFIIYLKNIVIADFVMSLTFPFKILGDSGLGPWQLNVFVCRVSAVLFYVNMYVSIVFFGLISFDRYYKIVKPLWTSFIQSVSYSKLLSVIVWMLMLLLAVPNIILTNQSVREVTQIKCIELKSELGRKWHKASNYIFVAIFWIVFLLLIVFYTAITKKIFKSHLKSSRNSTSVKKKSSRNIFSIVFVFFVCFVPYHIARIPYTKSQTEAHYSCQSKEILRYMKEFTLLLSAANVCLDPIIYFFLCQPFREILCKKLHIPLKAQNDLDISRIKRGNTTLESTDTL
Sequence of Adenosine receptor A2b (Homo sapiens) (P29275 whole entry): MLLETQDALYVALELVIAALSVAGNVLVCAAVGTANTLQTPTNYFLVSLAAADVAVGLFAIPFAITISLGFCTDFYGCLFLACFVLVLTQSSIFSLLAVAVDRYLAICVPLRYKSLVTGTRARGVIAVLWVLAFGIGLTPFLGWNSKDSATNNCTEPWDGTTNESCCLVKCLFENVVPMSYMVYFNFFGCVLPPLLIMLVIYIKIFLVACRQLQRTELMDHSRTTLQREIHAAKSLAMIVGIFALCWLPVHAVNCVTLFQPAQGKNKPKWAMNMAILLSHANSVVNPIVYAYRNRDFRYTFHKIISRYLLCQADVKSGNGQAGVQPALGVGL
Sequence of Adenosine receptor A1 (Homo sapiens) (P30542 whole entry): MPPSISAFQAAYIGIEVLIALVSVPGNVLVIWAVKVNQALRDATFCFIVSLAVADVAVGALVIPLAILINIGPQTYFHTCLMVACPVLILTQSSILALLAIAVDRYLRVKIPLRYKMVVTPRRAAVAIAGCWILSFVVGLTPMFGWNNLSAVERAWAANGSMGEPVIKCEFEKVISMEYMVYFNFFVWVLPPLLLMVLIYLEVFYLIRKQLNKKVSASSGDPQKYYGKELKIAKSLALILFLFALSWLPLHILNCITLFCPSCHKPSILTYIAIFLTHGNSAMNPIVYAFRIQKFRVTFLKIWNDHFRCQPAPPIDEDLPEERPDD

## CNC(=O)O[C@@H](CC(C)C)c1nc([C@H]2OC(=O)C/C=C/C(C)=C/[C@@H](O)[C@@H](C)\C=C(C)/C=C(C)\C=C\[C@@H](O)[C@H](C)[C@H](O)/C(C)=C/C=C/[C@@H]2C)cs1
Neutrophil elastase; read-out: IC50
  IC50: 1540 nM
cells
  IC50: 3050 nM
P2X purinoceptor 3
  IC50: > 10000 nM
Adenosine receptor A3
  Ki: 1380 nM
[1]
  IC50: 213 nM

## CNC(=O)O[C@@H](CC(C)C)c1nc([C@H]2OC(=O)[C@H](C)/C=C/C(C)=C/[C@@H](O)[C@@H](C)\C=C(C)/C=C(C)\C=C\[C@@H](O)[C@H](C)[C@H](OC)/C(C)=C/C=C/[C@@H]2C)cs1
Neutrophil elastase; read-out: IC50
  IC50: 595 nM
cells
  IC50: 2.58 nM
P2X purinoceptor 3
  IC50: > 2000 nM
Adenosine receptor A3
  Ki: ≥ 10000 nM
[1]
  IC50: 7.94 nM

## CO[C@@H]1/C(C)=C/C=C/CCOC(=O)C/C=C/C(C)=C/[C@@H](O)[C@@H](C)\C=C(C)/C=C(C)\C=C\[C@@H](O)[C@@H]1C
Neutrophil elastase; read-out: IC50
  IC50: 5850 nM
Adenosine receptor A3
  Ki: 609 nM

## CNC(=O)O[C@@H](CC(C)C)c1nc([C@@H](O)[C@@H](C)/C=C/C=C(\C)[C@@H](OC)[C@@H](C)[C@H](O)/C=C/C(C)=C\C(C)=C/[C@H](C)[C@H](O)/C=C(C)/C=C/CC(=O)OC)cs1
Neutrophil elastase; read-out: IC50
  IC50: 2340 nM
cells
  IC50: 296 nM
P2X purinoceptor 3
  IC50: > 10000 nM
Adenosine receptor A3
  Ki: 1610 nM
[1]
  IC50: 352 nM

## CNC(=O)O[C@@H](CC(C)C)c1nc([C@H]2OC(=O)[C@@H](C)/C=C/C(C)=C/[C@@H](O)[C@@H](C)\C=C(C)/C=C(C)\C=C\[C@@H](O)[C@H](C)[C@H](OC)/C(C)=C/C=C/[C@@H]2C)cs1
Neutrophil elastase; read-out: IC50
  IC50: 721 nM
cells
  IC50: 2.16 nM
P2X purinoceptor 3
  IC50: 648 nM
Adenosine receptor A3
  Ki: 1140 nM
[1]
  IC50: 5.52 nM

## CNC(=O)O[C@@H](CC(C)C)c1nc([C@H]2OC(=O)/C(C)=C/C/C(C)=C/[C@@H](O)[C@@H](C)\C=C(C)/C=C(C)\C=C\[C@@H](O)[C@H](C)[C@H](OC)/C(C)=C/C=C/[C@@H]2C)cs1 [ARCHAZOLID A]
[2]
  inhibition: inactive
Homo sapiens
  inhibition: 52%
[3]
  inhibition: Dose-dependent effect
[4]
  inhibition: inactive
[5]
  inhibition: inactive
[6]
  inhibition: inactive
Neutrophil elastase; read-out: IC50
  IC50: 352 nM
cells
  IC50: 0.253 nM
[7]
  inhibition: 82%
[8]
  inhibition: inactive
[9]
  inhibition: inactive
[10]
  inhibition: inactive
[11]
  inhibition: inactive
[12]
  inhibition: inactive
[13]
  inhibition: inactive
[14]
  inhibition: inactive
[15]
  inhibition: inactive
[16]
  inhibition: inactive
P2X purinoceptor 3
  IC50: 86.1 nM
Adenosine receptor A3
  Ki: 967 nM
[17]
  inhibition: inactive
[18]
  inhibition: inactive
[1]
  IC50: 6.33 nM
[19]
  inhibition: inactive
[20]
  inhibition: inactive
[21]
  inhibition: inactive
Trypsin (Homo sapiens)
  inhibition: inactive

## CNC(=O)O[C@@H](CC(C)C)c1nc([C@H]2OC(=O)C/C=C/C(C)=C/[C@@H](O)[C@@H](C)\C=C(C)/C=C(C)\C=C\[C@@H](O)[C@H](C)[C@H](OC)/C(C)=C/C=C/[C@@H]2C)cs1 [ARCHAZOLID F]
[22]
  Drug metabolism: Metabolite_Detected
[23]
  Drug metabolism: Metabolite_Detected
[24]
  Drug metabolism: Metabolite_Detected
[25]
  Drug metabolism: Metabolite_Detected
Neutrophil elastase; read-out: IC50
  IC50: 830 nM
cells
  IC50: 4.51 nM
[26]
  Drug metabolism: Metabolite_Detected
[27]
  Drug metabolism: Metabolite_Detected
[10]
  inhibition: inactive
[28]
  microsomal CLint at 1 µM: 271 µL/min/mg
[12]
  inhibition: inactive
[16]
  inhibition: inactive
P2X purinoceptor 3
  IC50: 438 nM
Adenosine receptor A3
  Ki: 859 nM
[1]
  IC50: 6.26 nM
Trypsin (Homo sapiens)
  inhibition: inactive

## CO/C1=C\C(C)=C\[C@@H](C)[C@@H](O)[C@@H](C)C/C(C)=C/C=C/[C@H](OC)[C@@H]([C@@H](C)[C@@H](O)[C@H](C)[C@@]2(O)C[C@@H](O)[C@H](C)[C@@H](C(C)C)O2)OC1=O [BAFILOMYCIN A1]
Neutrophil elastase
  IC50: Not Active
cells
  IC50: 3.06 nM
P2X purinoceptor 3
  IC50: 755 nM
Adenosine receptor A3
  Ki: 1080 nM
[1]
  IC50: 10 nM
